The structures appear in SMILES notation. pIC50: −log10 of the molar value. Like-named read-outs stand apart in the source and are kept apart here.

From US20240051936A1, “ISOINDOLINONE COMPOUNDS” (Monte Rosa Therapeutics, Inc., priority 2021, published 2024) come the findings set out here.

The target of assay [1] is GSPT1 (Homo sapiens (Human), UniProt P15170+Q96SW2). Briefly: Immunofluorescence assay for GSPT1 degradation in CAL-Si cells. The format is cell-based. The following applies: CAL-Si cells. As for the experimental part: The compounds were tested in an immunofluorescence assay for their activity to bind to degrade GSPT1. CAL-Si cells were purchased from DSMZ (cat. Number ACC302), sub-cultured in 90% Dulbecco's MEM (4.5 g/L glucose, Gibco 11965)+10% heat inactivated FBS (BioConcept, 2-01F136I) and incubated at 37° C., 5% CO2. For the assay, imaging microtiterplate Cell Carrier 96 Ultra (Perkin Elmer 6055302) were pre-coated with Fibronectin (Sigma F085, 30 μl at 0.2 μg/ml) in PBS (100 μl, Gibco 14190) for 45 min at room temperature, rinsed with PBS and CAL-Si cells (30K cells/well) were plated and let to adhere overnight. Cells were treated with compounds typically using a serial dilution ranging from 30 μM to 0.1 nM for 6 hours. Compounds were stored at 10 mM DMSO stocks. Vehicle (DMSO), positive (CC-885, 10 μM) and rescue controls (positive control plus 0.2 μM bortezomib) were also included at this stage. Cells were subsequently rinsed with PBS and fixed in 10% Formalin solution (50 μl, Sigma HT5011)) for 20 mins at room temperature. Following three consecutive PBS washes (100 μl), cells were permeabilized in 0.1% Triton X-100 in PBS (Sigma 93443, 50 μl) for 15 mins at room temperature. Following three further PBS washes, 50 μl blocking buffer (1% BSA, Sigma A4503, in PBS) was added for 45 min for signal-to-noise reduction.
Primary antibody (human GSPT1, Sigma HPA052488) was diluted in blocking buffer (dil.1/300, 35 μl/well) and incubated with the cells overnight at 4° C. After three PBS washes, Alexa-fluor 488 coupled secondary antibodies (Invitrogen, A32731, dil.1/1000), Alexa-fluor 647-Phalloïdin (Invitrogen, A22287, dil.1/200) and DAPI (Thermo, #62248, dil.1/1000) were diluted in blocking buffer and incubated with the samples for 2 hours at room temperature. After three final PBS washes, samples were conserved in 100 μl PBS in the dark, until measurement. Image acquisition was performed on the Operetta High-Content Imager (Perkin-Elmer). Fluorescence intensity of Alexa-Fluor 488 (GSPT1), Alexa-Fluor 647 (Actin) and DAPI (Nucleus) were measured. For the determination of GSPT1 DC50 values, a custom algorithm implemented in the PerkinElmer image analysis software Harmony-Acapella® was developed. After user-defined setting of adjustment parameters, the analysis was run identically without human intervention for all image fields. DAPI staining of the nuclei was used to determine the location of cells using standard nuclei detection modules. Segmentation artifacts were removed by threshold-based filters for area, roundness and intensity. The outline of the cells was determined analogously from the sum of the normalized, smoothed DAPI and Actin channel, starting from each nucleus. The Alexa-Fluor 488 (GSPT1) signal intensity in each cell was finally measured, in order to obtain a Mean intensity per cell. GSPT1 degradation (DC50) was calculated after normalization to controls and data import in CDD vault Database, using non-linear regression.

Assay [2] deals with Full length wild-type cereblon CRBN (Homo sapiens (Human), UniProt Q96SW2). The assay is described as follows: Fluorescence polarization (FP) assay, cereblon binding. As for the experimental part: Compound activity was monitored in a fluorescence polarization (FP) homogeneous assay using 1-[5-({2-[2-(2-{[2-(2,6-dioxopiperidin-3-yl)-1,3-dioxo-2,3-dihydro-1H-isoindol-4-yl]oxy}acetamido)ethoxy]ethyl}carbamoyl)pentyl]-3,3-dimethyl-2-[(1E,3E)-5-[(2E)-1,3,3-trimethyl-5-sulfo-2,3-dihydro-1H-indol-2-ylidene]penta-1,3-dien-1-yl]-3H-indol-1-ium-5-sulfonate as a fluorescent probe. Unless otherwise stated, all reagents were purchased from Sigma Aldrich. Enzymatic reactions were conducted in Perkin-Elmer Black 384 well ProxiPlate Plus (catalogue no. 6008269) in 10 sL total volume. Full length wild-type cereblon CRBN (80.0 nM, 10 sL) was incubated in assay buffer containing 20 mM HEPES (pH 8.0), […], 0.5 mM TCEP and 0.05% Tween 20 in the presence or absence of compound (300 nL). Inhibitors were stored as 10 mM DMSO stocks in an inert environment (low humidity, dark, low oxygen, room temperature) using the Storage Pod System.
Compounds and DMSO were dispensed using the Echo E5XX (Labcyte Inc. USA) to give concentrations from 300 to 0.937 or 3000 to 9.3 nM in a 12 data point curve. […] Following incubation at room temperature for 30 min, the assay was initiated by dispensing the probe to a final concentration of 5 nM (2.5 nL of a 20 μM stock) using the Echo E5XX. FP was measured after a period of 12 hours using a Pherastar plate reader (BMG Labtech, Germany) exciting at 590 nm and measuring the amount of parallel and perpendicular light at 675 nm. The FP signal was subsequently normalized to the no-compound control (i.e., DMSO). Analysis and IC50 values were derived using Dotmatics (Dotmatics UK) software.
(In fluorescence polarisation assays a small probe gives low polarisation when free and higher when bound to something large.)

[3] abbreviates: compounds with code A, read-out: DC50 value code.
Setting [4] is: treated 6 hours, read-out: Code, activity for GSPT1 degradation (DC50).
The mark [5] stands for this setting: cereblon binding, bound, read-out: IC50 value.
[6] abbreviates: wild-type CRBN 80.0 nM, probe 5 nM, FP measured after 12 hours, read-out: rFP IC50.

Chain of Full length wild-type cereblon CRBN (Q96SW2 whole entry): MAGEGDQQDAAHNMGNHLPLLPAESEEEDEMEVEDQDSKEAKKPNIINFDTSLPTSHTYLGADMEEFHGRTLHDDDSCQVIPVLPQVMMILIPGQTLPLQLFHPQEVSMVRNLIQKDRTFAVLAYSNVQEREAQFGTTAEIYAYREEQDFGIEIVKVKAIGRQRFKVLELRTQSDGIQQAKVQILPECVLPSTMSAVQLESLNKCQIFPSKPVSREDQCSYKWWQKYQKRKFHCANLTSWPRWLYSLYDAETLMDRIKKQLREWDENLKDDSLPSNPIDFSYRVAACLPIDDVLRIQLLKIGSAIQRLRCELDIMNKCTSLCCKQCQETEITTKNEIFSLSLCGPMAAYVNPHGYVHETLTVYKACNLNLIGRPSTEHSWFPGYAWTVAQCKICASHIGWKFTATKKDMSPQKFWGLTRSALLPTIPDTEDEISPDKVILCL
Chain of GSPT1 (P15170 whole entry): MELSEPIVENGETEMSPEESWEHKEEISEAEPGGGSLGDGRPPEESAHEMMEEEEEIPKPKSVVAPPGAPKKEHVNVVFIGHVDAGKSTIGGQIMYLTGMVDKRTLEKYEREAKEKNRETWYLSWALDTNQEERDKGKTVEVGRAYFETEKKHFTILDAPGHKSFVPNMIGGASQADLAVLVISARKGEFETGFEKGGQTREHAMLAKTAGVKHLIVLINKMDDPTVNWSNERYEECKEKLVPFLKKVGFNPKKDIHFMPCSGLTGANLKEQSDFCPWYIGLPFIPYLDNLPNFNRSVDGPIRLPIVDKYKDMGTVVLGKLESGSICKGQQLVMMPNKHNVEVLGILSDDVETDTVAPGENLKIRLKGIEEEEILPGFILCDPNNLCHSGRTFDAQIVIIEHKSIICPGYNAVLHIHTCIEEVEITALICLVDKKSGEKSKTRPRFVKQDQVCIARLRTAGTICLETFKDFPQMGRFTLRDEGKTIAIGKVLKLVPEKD
Chain of GSPT1 (Q96SW2 whole entry): as the sequence (Q96SW2 whole entry) above
Chain of GSPT1 (Q16531 whole entry partner): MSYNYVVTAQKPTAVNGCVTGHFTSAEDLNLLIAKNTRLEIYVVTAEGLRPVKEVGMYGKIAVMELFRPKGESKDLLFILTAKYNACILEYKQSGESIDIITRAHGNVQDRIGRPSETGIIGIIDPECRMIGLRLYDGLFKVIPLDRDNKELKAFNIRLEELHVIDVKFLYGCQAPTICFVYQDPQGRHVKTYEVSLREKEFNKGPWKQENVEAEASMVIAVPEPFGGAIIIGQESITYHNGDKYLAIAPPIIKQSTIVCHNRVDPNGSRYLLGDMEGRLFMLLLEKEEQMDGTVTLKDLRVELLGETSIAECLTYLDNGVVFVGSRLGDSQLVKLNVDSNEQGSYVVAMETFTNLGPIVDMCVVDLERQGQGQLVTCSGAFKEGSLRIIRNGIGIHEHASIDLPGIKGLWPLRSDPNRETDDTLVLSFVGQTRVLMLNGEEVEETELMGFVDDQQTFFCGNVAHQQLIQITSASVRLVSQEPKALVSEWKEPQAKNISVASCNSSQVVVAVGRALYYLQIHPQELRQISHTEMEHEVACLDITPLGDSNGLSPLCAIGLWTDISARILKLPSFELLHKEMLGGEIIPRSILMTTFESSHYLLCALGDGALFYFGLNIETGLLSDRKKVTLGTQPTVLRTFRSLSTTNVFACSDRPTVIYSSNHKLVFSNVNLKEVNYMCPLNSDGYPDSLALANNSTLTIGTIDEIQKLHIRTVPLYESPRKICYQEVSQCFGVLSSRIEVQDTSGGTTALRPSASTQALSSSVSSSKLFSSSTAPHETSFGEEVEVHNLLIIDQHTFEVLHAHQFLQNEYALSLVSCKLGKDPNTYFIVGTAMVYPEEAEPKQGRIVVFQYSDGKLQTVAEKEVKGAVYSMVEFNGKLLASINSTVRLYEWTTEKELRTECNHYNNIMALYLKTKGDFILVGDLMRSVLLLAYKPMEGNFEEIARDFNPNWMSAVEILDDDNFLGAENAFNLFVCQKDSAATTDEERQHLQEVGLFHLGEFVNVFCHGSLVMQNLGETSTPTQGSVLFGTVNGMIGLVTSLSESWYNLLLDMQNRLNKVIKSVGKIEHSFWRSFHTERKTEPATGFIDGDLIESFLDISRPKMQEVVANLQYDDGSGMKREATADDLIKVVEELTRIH

Take `COc1cc(COC(=O)Nc2cc(F)cc(Cl)c2)cc2c1CN(C1CCC(=O)NC1=O)C2=O` (centres unmarked) [Compound 50, (2-(2,6-dioxopiperidin-3-yl)-7-methoxy-3-oxoisoindolin-5-yl)methyl(3-chloro-5-fluorophenyl)carbamate]: the half-maximal degradation concentration (DC50) in assay [1] (setting [3]) and in assay [1] (setting [4]) was less than 30 nM each time. Further, the pIC50 – broadly, the negative decadic logarithm of the IC50, by convention in mol/L – in assay [2] (setting [5]) is more than 6.22; in assay [2] (setting [6]), 5.92 to 6.22.
Regarding `O=C1CCC(N2Cc3c(F)cc(COC(=O)Nc4cc(Cl)cc(Cl)c4)cc3C2=O)C(=O)N1` (centres unmarked) [Compound 28, (2-(2,6-dioxopiperidin-3-yl)-7-fluoro-3-oxoisoindolin-5-yl)methyl(3,5-dichlorophenyl)carbamate], the DC50 (as a rule, the concentration at which degradation of the target reaches its halfway point) in assay [1] (setting [4]) was in the range of 30 to 300 nM. Also, in assay [2] (setting [6]), the pIC50 was less than 5.72.
`O=C1CCC(N2Cc3c(F)cc(COC(=O)Nc4cc(-c5ccccc5)ccn4)cc3C2=O)C(=O)N1` (centres unmarked) [Compound 24, (2-(2,6-dioxopiperidin-3-yl)-7-fluoro-3-oxoisoindolin-5-yl)methyl(4-phenylpyridin-2-yl)carbamate]: the DC50 in assay [1] (setting [4]) lay in the range of 30 to 300 nM. Besides, the pIC50 in assay [2] (setting [6]) was less than 5.72.
For the compound `Cc1ccc(NC(=O)OCc2cc(Cl)c3c(c2)C(=O)N(C2CCC(=O)NC2=O)C3)cc1Cl` (centres unmarked) [Compound 4, (7-chloro-2-(2,6-dioxopiperidin-3-yl)-3-oxoisoindolin-5-yl)methyl (3-chloro-4-methylphenyl)carbamate], the DC50 in assay [1] (setting [4]) lay within 30 to 300 nM. In addition, in assay [2] (setting [6]), the pIC50 is less than 5.72.
For `Cc1ccc(NC(=O)OCc2cc(F)c3c(c2)C(=O)N(C2CCC(=O)NC2=O)C3)cc1OC(F)F` (centres unmarked) [Compound 35, (2-(2,6-dioxopiperidin-3-yl)-7-fluoro-3-oxoisoindolin-5-yl) methyl (3-(difluoromethoxy)-4-methylphenyl)carbamate], the DC50 in assay [1] (setting [3]) and in assay [1] (setting [4]) was less than 30 nM in each case. In addition, the pIC50 in assay [2] (setting [6]) is less than 5.72.
Consider `COc1cc(COC(=O)Nc2cccc(OC3CC3)c2)cc2c1CN(C1CCC(=O)NC1=O)C2=O` (centres unmarked) [Compound 58, (2-(2,6-dioxopiperidin-3-yl)-7-methoxy-3-oxoisoindolin-5-yl)methyl (3-cyclopropoxyphenyl)carbamate], for which, in assay [1] (setting [4]), the half-maximal degradation concentration (DC50) was more than 300 nM. The figures for the pIC50 in assay [2] (setting [5]) and in assay [2] (setting [6]) were more than 6.22 and not below 6.22, respectively.
`COc1cc(COC(=O)Nc2ccc(N3CCCCC3C)nc2)cc2c1CN(C1CCC(=O)NC1=O)C2=O` (centres unmarked) [Compound 38, (2-(2,6-dioxopiperidin-3-yl)-7-methoxy-3-oxoisoindolin-5-yl)methyl(6-(2-methylpiperidin-1-yl)pyridin-3-yl)carbamate]: the 50% degradation concentration (DC50) in assay [1] (setting [3]) and in assay [1] (setting [4]) was less than 30 nM each time. In addition, the results for the pIC50 in assay [2] (setting [5]) and in assay [2] (setting [6]) were more than 6.22 and not below 6.22, respectively.
`O=C1CCC(N2Cc3c(F)cc(COC(=O)Nc4cccc(OC(F)(F)F)c4)cc3C2=O)C(=O)N1` (centres unmarked) [Compound 15, (2-(2,6-dioxopiperidin-3-yl)-7-fluoro-3-oxoisoindolin-5-yl)methyl (3-(trifluoromethoxy)phenyl)carbamate]: the DC50 in assay [1] (setting [4]) lay within 30 to 300 nM. Also, the pIC50 in assay [2] (setting [6]) is less than 5.72.
Take `O=C1CCC(N2Cc3c(F)cc(COC(=O)Nc4cc(F)cc(OC(F)F)c4)cc3C2=O)C(=O)N1` (centres unmarked) [Compound 6, (2-(2,6-dioxopiperidin-3-yl)-7-fluoro-3-oxoisoindolin-5-yl)methyl(3-(difluoromethoxy)-5-fluorophenyl)carbamate]: the DC50 in assay [1] (setting [4]) lay in the range of 30 to 300 nM. The pIC50 in assay [2] (setting [6]) was less than 5.72.
Consider `COc1cc(COC(=O)Nc2ccc3c(c2)OCC3(C)C)cc2c1CN(C1CCC(=O)NC1=O)C2=O` (centres unmarked) [Compound 37, (2-(2,6-dioxopiperidin-3-yl)-7-methoxy-3-oxoisoindolin-5-yl) methyl(3,3-dimethyl-2,3-dihydrobenzofuran-6-yl)carbamate], for which the DC50 in assay [1] (setting [3]) and in assay [1] (setting [4]) was less than 30 nM in each case. In addition, the negative-log IC50 (pIC50) in assay [2] (setting [5]) is more than 5.92.
Regarding `O=C1CCC(N2Cc3c(F)cc(COC(=O)Nc4cccc(OC5CC5)c4)cc3C2=O)C(=O)N1` (centres unmarked) [Compound 21, (2-(2,6-dioxopiperidin-3-yl)-7-fluoro-3-oxoisoindolin-5-yl)methyl (3-cyclopropoxyphenyl)carbamate], the DC50 in assay [1] (setting [3]) and in assay [1] (setting [4]) was less than 30 nM throughout. For the same compound, the pIC50 was more than 6.22 in assay [2] (setting [5]) and 5.72 to 5.92 in assay [2] (setting [6]).
As for `COc1cc(COC(=O)Nc2cccc(C(C)(C)C)c2)cc2c1CN(C1CCC(=O)NC1=O)C2=O` (centres unmarked) [Compound 54, (2-(2,6-dioxopiperidin-3-yl)-7-methoxy-3-oxoisoindolin-5-yl)methyl (3-(tert-butyl)phenyl)carbamate], the half-maximal degradation concentration (DC50) in assay [1] (setting [3]) and in assay [1] (setting [4]) was less than 30 nM in each case. The negative logarithm of the IC50 (pIC50) in assay [2] (setting [5]) was more than 6.22; in assay [2] (setting [6]), not below 6.22.
As for `COc1cc(COC(=O)Nc2ccc(C(C)(C)C)nc2)cc2c1CN(C1CCC(=O)NC1=O)C2=O` (centres unmarked) [Compound 44, (2-(2,6-dioxopiperidin-3-yl)-7-methoxy-3-oxoisoindolin-5-yl)methyl (6-(tert-butyl)pyridin-3-yl)carbamate], the DC50 in assay [1] (setting [3]) and in assay [1] (setting [4]) was less than 30 nM throughout. For the same compound, the negative-log IC50 (pIC50) in assay [2] (setting [5]) is more than 6.22; in assay [2] (setting [6]), not below 6.22.
For the compound `Cc1ccccc1-c1ccc(NC(=O)OCc2cc(F)c3c(c2)C(=O)N(C2CCC(=O)NC2=O)C3)cn1` (centres unmarked) [Compound 19, (2-(2,6-dioxopiperidin-3-yl)-7-fluoro-3-oxoisoindolin-5-yl)methyl (6-(o-tolyl)pyridin-3-yl)carbamate], the DC50 in assay [1] (setting [3]) and in assay [1] (setting [4]) was less than 30 nM throughout. In addition, the pIC50 was more than 6.22 in assay [2] (setting [5]) and not below 6.22 in assay [2] (setting [6]).
On to `O=C1CCC(N2Cc3c(F)cc(COC(=O)Nc4ccc(-c5ccccc5)nc4)cc3C2=O)C(=O)N1` (centres unmarked) [Compound 8, (2-(2,6-dioxopiperidin-3-yl)-7-fluoro-3-oxoisoindolin-5-yl)methyl(6-phenylpyridin-3-yl)carbamate], for which the DC50 in assay [1] (setting [3]) and in assay [1] (setting [4]) was less than 30 nM throughout. Also, the pIC50 in assay [2] (setting [6]) was less than 5.72.
With `COc1cc(COC(=O)Nc2ccc(C)c(OC(F)F)c2)cc2c1CN(C1CCC(=O)NC1=O)C2=O` (centres unmarked) [Compound 48, (2-(2,6-dioxopiperidin-3-yl)-7-methoxy-3-oxoisoindolin-5-yl)methyl (3-(difluoromethoxy)-4-methylphenyl) carbamate], the DC50 in assay [1] (setting [4]) fell in the range of 30 to 300 nM. The pIC50 in assay [2] (setting [5]) was more than 6.22; in assay [2] (setting [6]), 5.72 to 5.92.
On to `COc1cc(COC(=O)Nc2ccc(C3(C)CC3)cc2)cc2c1CN(C1CCC(=O)NC1=O)C2=O` (centres unmarked) [Compound 40, (2-(2,6-dioxopiperidin-3-yl)-7-methoxy-3-oxoisoindolin-5-yl)methyl (4-(1-methylcyclopropyl)phenyl)carbamate], for which the 50% degradation concentration (DC50) in assay [1] (setting [3]) and in assay [1] (setting [4]) was less than 30 nM each time. The pIC50 in assay [2] (setting [5]) was more than 6.22; in assay [2] (setting [6]) it was not below 6.22.
